Assay results from patent USRE48175E1, “Hydrophobically tagged small molecules as inducers of protein degradation” (Dana-Farber Cancer Institute, Inc., priority 2012, dated 2020).

Key:
[1] = target: T1, ErbB3(667-1053) protein (Her3) (Homo sapiens, UniProt P21860); assay: LanthaScreen Eu kinase binding assay (Her3 ATP-site binding); conditions: binding to the ATP-site of Her3
T1 construct: Purified ErbB3(667-1053) protein was obtained from Invitrogen; purchased Invitrogen
T1 sequence (P21860 667-1053): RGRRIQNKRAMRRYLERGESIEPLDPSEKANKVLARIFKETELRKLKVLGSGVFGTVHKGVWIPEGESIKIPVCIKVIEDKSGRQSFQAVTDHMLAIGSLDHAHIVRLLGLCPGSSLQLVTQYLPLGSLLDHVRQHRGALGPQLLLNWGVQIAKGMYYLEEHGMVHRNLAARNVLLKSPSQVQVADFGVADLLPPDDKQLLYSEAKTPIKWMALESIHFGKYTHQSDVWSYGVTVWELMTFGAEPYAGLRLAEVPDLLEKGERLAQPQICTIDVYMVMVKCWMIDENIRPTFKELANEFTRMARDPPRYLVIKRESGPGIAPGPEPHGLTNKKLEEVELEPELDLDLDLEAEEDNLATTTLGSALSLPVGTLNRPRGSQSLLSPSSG
Procedure: To discover chemical starting points for developing Her3 inhibitors, the inventors screened a library of 1,500 kinase-directed compounds using the LanthaScreen™ Eu methodology for compounds that could bind to the ATP-site of Her3. […] See, e.g., Stachlewitz et al., J Pharmacol Exp Ther. (2005) 315:36-41.
FIG. 2 depicts binding affinity data for exemplary compounds of Formula (II). Binding affinity (IC50) was measured by Invitrogen LanthaScreen™ Eu kinase binding assay which is based on the binding and displacement of Alexa Fluor 647 labeled ATP-competitive kinase inhibitor scaffold (Kinase Tracer 178). Binding of the tracer to the kinase is detected using a europium-labeled anti-tag antibody (anti-GST). The binding of both the tracer and antibody to the kinase results in a high degree of FRET (fluorescenece resonance energy transfer) from the europium donor fluorophore to the Alexa Fluor 647 acceptor fluoropore on the kinase tracer. […] This centrifugation step will eliminate spurious data points that can arise on occasion due to any particulates in the product. • (3) Add 5 ul the mixture of ErbB3 protein and Eu-anti-GST to 5 ul test compound solution per well in coming 384 plates. • (4) Add 5 ul tracer 178 at concentration of 39 nM per well. • (5) Incubate for 3 hours at 4° C. and read plate with Perkin Elmer EnVision. […]

[2] = test system: downstream effectors of Her3, such as Erk and Akt; assay: Phosphorylation of downstream effectors of Her3 (Erk, Akt) in cells; type: cell-based; conditions: TX2-62-1 formed inside the cell from TX2-49-1 and TX2-57-1 via oxime formation
Procedure: (§1) Without wishing to be bound by any particular theory, the inventors hypothesize that this lack of inhibition is the result of poor cell penetration of TX2-62-1 due to its high molecular weight (MW=828.5). The inventors tested this hypothesis by designing a strategy whereby the two halves of TX2-62-1 (TX2-49-1 and TX2-57-1) were brought together inside of a cell via oxime formation. See Scheme 1 below.
(§2) PC9 Gefitinib Resistant 4 (GR4) cells were cultured in 60 mm plate with 10% fetal bovine serum (FBS), Roswell Park Memorial Institute medium (RPMI) medium. When the confluence reached 80%, cells were treated with compounds in indicated concentration. After 4 hours, wash cells with medium for three times. Cells were cultured for another 4 hours, followed by 3 times PBS washes. Cells were lysed with lysis buffer (25 mM Tris-HCl pH 7.4, 150 mM NaCl, 1 mM EDTA, 1% NP-40, 5% glycerol, Roche PhosSTOP phosphatase inhibitor cocktail tablets and Roche Complete Protease inhibitor cocktail tablets). […]
(§3) With the spectrophotometer set to 562 nm, zero the instrument on a cuvette filled only with water. Subsequently, measure the absorbance of all the samples with 10 minutes. Subtract the average 562 nm absorbance measurement of the Blank standard replicates from the 562 nm absorbance measurement of all other individual standard and unknown sample replicates. […]

[3] = test system: Her3-addicted cells; assay: Her3-dependent growth / viability of Her3-addicted cells; type: cell-based
Source text: as §1
FIG. 3 depicts anti-proliferation data for exemplary compounds of Formula (II). The anti-proliferation assay was carried out by using 96 well white bottom plates. 2000-4000 cells were seeded per well, and the medium volume per well was about 100 ul. Incubate for 3 days after adding and titrating indicated concentration of compounds. The cell viability was test by CellTiter-Glo® Luminescent Assay. In a typical experiment, add 10 ul CellTiter-Glo® reagent per well. Mix and shake the plate for 2 minutes to induce cell lysis at room temperature. Allow the plate to incubate at room temperature for approximately 10 minutes to stabilize luminescent signal. Read plate with Perkin Elmer EnVision. The cell numbers were normalized by the DMSO control. And the EC50s were calculated by GraphPad Prism.

[4] = target: T2, Her3 (Homo sapiens, UniProt P21860); assay: Her3 protein degradation in cells; type: cell-based
T2 construct: endogenous in cells; host or cells: PC9 GR4
T2 sequence (P21860 20-1342): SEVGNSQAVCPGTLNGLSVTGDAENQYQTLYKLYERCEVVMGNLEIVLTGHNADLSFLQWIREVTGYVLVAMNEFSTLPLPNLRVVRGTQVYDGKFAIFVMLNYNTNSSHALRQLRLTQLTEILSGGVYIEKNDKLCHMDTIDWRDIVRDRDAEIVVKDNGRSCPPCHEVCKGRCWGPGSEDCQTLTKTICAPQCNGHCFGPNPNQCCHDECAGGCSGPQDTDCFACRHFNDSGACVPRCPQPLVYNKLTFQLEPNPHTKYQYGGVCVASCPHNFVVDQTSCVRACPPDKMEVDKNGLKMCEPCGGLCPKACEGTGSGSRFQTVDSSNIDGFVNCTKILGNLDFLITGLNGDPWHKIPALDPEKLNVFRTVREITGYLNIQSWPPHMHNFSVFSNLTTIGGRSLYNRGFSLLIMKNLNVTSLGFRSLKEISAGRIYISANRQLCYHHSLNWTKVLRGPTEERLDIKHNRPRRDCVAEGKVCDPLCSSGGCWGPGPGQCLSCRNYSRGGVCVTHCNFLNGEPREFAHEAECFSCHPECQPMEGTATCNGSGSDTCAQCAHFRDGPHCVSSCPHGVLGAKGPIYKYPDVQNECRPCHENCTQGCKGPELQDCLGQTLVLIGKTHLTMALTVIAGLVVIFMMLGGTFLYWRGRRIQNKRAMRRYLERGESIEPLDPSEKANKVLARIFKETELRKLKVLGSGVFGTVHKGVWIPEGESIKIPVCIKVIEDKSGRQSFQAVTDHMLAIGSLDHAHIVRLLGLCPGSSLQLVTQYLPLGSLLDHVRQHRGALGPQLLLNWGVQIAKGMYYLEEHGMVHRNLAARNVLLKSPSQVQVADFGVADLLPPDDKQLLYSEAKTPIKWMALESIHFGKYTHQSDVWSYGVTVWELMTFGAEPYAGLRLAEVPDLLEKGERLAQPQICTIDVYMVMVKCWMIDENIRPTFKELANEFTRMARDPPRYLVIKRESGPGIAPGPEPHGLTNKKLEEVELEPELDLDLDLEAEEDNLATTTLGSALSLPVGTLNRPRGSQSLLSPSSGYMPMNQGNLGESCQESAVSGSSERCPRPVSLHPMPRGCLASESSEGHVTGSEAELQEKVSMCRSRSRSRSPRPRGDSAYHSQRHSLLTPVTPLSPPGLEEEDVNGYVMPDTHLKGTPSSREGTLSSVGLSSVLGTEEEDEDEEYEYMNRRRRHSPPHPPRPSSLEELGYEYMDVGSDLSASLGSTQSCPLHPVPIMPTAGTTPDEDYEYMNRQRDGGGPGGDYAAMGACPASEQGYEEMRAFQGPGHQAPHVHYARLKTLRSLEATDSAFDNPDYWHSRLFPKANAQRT
Procedure: as §1, §2, §3

[5] = TX2-62-1 formed inside the cell from TX2-49-1 and TX2-57-1 via oxime formation

Row | degradation of Her3 [4, 5] | Her3 protein level after washout ([4]; after TX2-62-1 was washed out) | SMILES | Her3 binding [1] | inhibition of Her3-dependent signaling [2] | viability of Her3-addicted cells [3, 5] | cell proliferation after washout ([3]; after TX2-62-1 was washed out) | inhibition of Her3-dependent growth ([3]; compound added as preformed molecule)
1 |  |  | COc1cc(-c2nn(C3CCC(N4CCN(C(C)=O)CC4)CC3)c3ncnc(N)c23)ccc1NC(=O)c1cc2ccccc2n1C (centres unmarked) [KIN001-111, reference compound] | most potent Her3 binder |  |  |  | 
2 | efficient degradation of Her3 | Her3 protein was resynthesized | C=CC(=O)Nc1cc(-c2nn(C3CCC(N4CCN(C/C(C)=N/OCCNC(=O)CC5C6CC7CC(C6)CC5C7)CC4)CC3)c3ncnc(N)c23)ccc1Oc1ccccc1 (centres unmarked) [TX2-62-1] | maintained potent and covalent Her3 binding ability | inhibition of Her3-dependent signaling | loss of viability of Her3-addicted cells | cell proliferation resumed | did not inhibit Her3-dependent growth
